Assay results from patent publication US20170327598A1, “SINGLE DOMAIN ANTIBODIES DIRECTED AGAINST INTRACELLULAR ANTIGENS” (SINGH MOLECULAR MEDICINE, LLC, priority 2014, published 2017).
Where “and” joins values, the source holds several entries; their conditions need not be identical. Equal values may be shown once. Numbered stars: 1 amine (or outer) side, 2 acyl side, 3 side chain; on linkers, the order of the positions; unused ones are H or OH. Bridge positions count the residues as written; N and C are the ends. Square brackets hold non-standard residues; d marks the D form. Peptide text beside a SMILES is read from it. I, II: the chains in the order shown. Actinocin(9to1) = Cc1c2oc3c(C)ccc(C(=O)[*:1])c3nc-2c(C(=O)[*:2])c(N)c1=O; NMeV = CN[C@H](C(=O)O)C(C)C; Sar = CNCC(=O)O

Tested on: L929 cells
Assay: Percent toxicity of control wells in L929 cells
Assay type: cell-based, mouse
Conditions: Actinomycin D only (no TNFα), sample replicates

SMILES: Cc1c2oc3c(C)ccc(C(=O)N[C@@H]4C(=O)N[C@H](C(C)C)C(=O)N5CCC[C@H]5C(=O)N(C)CC(=O)N(C)[C@@H](C(C)C)C(=O)O[C@@H]4C)c3nc-2c(C(=O)N[C@@H]2C(=O)N[C@H](C(C)C)C(=O)N3CCC[C@H]3C(=O)N(C)CC(=O)N(C)[C@@H](C(C)C)C(=O)O[C@@H]2C)c(N)c1=O [Actinomycin D] (I: T[dV]P[Sar][NMeV] / II: T[dV]P[Sar][NMeV]; ester I:1-I:C, II:1-II:C; linker I:N-II:N via Actinocin(9to1))
- % Toxicity (Assay 1): 18.6% and 5.4% and 2.3% and 3.5% and 0% (8×)
- % Toxicity (Assay 2): 2.3% and 0% (4×) and 10.4% and 0.4%
